# Calls of active or inactive are those of the source. The rule behind the calls is not given here.
# What was measured:
# MGC-803 [1] = assay: Induction of apoptosis in human MGC-803 assessed by cleaved PARP levels incubated for 1 hr with Z-LEHD-FMK followed by compound addition measured by western blot assay; type: functional, cell-based
# SGC-7901 [2] = assay: Induction of apoptosis in human SGC-7901 cells assessed as late apoptotic cells at 0.625 uM measure after 24 hrs by Annexin-PI staining based Flowcytometry method (reference value: 1.29%); type: functional
# MGC-803 [3] = assay: Induction of apoptosis in human MGC-803 cells assessed as late apoptotic cells at 5 uM measure after 24 hrs by Annexin-PI staining based Flowcytometry method (reference value: 7.06%); type: functional
# MGC-803 [4] = assay: Antiproliferative activity against human MGC-803 cells assessed as inhibition of cell growth at 10 uM measured after 72 hrs by SRB assay relative to control; type: functional
# MGC-803 [5] = assay: Induction of apoptosis in human MGC-803 cells assessed as viable cells at 10 uM measure after 24 hrs by Annexin-PI staining based Flowcytometry method (reference value: 80%); type: functional; conditions: read-out: Activity
# MGC-803 [6] = assay: Induction of apoptosis in human MGC-803 cells assessed as late apoptotic cells at 2.5 uM measure after 24 hrs by Annexin-PI staining based Flowcytometry method (reference value: 7.06%); type: functional
# SGC-7901 [7] = assay: Induction of apoptosis in human SGC-7901 cells assessed as necrotic cells at 0.625 uM measure after 24 hrs by Annexin-PI staining based Flowcytometry method (reference value: 1.16%); type: functional
# MGC-803 [8] = assay: Induction of apoptosis in human MGC-803 cells assessed as decrease in accumulation of cleaved PARP preincubated with Chloroquine measured after 24 hrs by western blot assay; type: functional, cell-based
# MGC-803 [9] = assay: Inhibition of cell proliferation in human MGC-803 cells at 10 uM measured by SRB assay; type: functional, cell-based; conditions: time 72.0 hrs
# SGC-7901 [10] = assay: Induction of apoptosis in human SGC-7901 cells assessed as late apoptotic cells at 10 uM measure after 24 hrs by Annexin-PI staining based Flowcytometry method (reference value: 1.29%); type: functional
# SGC-7901 [11] = assay: Induction of apoptosis in human SGC-7901 cells assessed as necrotic cells at 5 uM measure after 24 hrs by Annexin-PI staining based Flowcytometry method (reference value: 1.16%); type: functional
# MGC-803 [12] = assay: Induction of apoptosis in human MGC-803 cells assessed as viable cells at 1.25 uM measure after 24 hrs by Annexin-PI staining based Flowcytometry method (reference value: 80%); type: functional; conditions: read-out: Activity
# SGC-7901 [13] = assay: Induction of apoptosis in human SGC-7901 cells assessed as viable cells at 1.25 uM measure after 24 hrs by Annexin-PI staining based Flowcytometry method (reference value: 94.9%); type: functional; conditions: read-out: Activity
# MGC-803 [14] = assay: Induction of apoptosis in human MGC-803 cells assessed as early apoptotic cells at 10 uM measure after 24 hrs by Annexin-PI staining based Flowcytometry method (reference value: 9.8%); type: functional
# MGC-803 [15] = assay: Induction of mitochondrial membrane potential loss in human MGC-803 cells at 10 uM measured after 24 hrs by JC-1 staining based flow cytometry method (reference value: 0.344%); conditions: Mitochondria
# MGC-803 [16] = assay: Induction of apoptosis in human MGC-803 cells assessed as viable cells at 0.625 uM measure after 24 hrs by Annexin-PI staining based Flowcytometry method (reference value: 80%); type: functional; conditions: read-out: Activity
# HGC-27 = assay: Antiproliferative activity against human HGC-27 cells assessed as inhibition of cell growth at measured after 72 hrs by SRB assay; type: functional
# MGC-803 [17] = assay: Induction of apoptosis in human MGC-803 cells assessed as early apoptotic cells at 5 uM measure after 24 hrs by Annexin-PI staining based Flowcytometry method (reference value: 9.8%); type: functional
# MGC-803 [18] = assay: Induction of morphological changes in human MGC-803 cells assessed as cell shrinkage at 5 uM incubated for 1 hrs by bright field microscopic analysis; type: functional, cell-based
# MGC-803 [19] = assay: Induction of morphological changes in human MGC-803 cells assessed as cell shrinkage at 10 uM incubated for 1 hrs by bright field microscopic analysis; type: functional, cell-based
# SGC-7901 [20] = assay: Induction of apoptosis in human SGC-7901 cells assessed as late apoptotic cells at 1.25 uM measure after 24 hrs by Annexin-PI staining based Flowcytometry method (reference value: 1.29%); type: functional
# MGC-803 [21] = assay: Induction of mitochondrial membrane potential loss in human MGC-803 cells at 5 uM measured after 24 hrs by JC-1 staining based flow cytometry method (reference value: 0.344%); conditions: Mitochondria
# GES1 = assay: Cytotoxicity against human GES1 cells assessed as inhibition of cell growth at measured after 72 hrs by SRB assay; type: cell-based; conditions: ges1, 72 h
# SGC-7901 [22] = assay: Inhibition of cell proliferation in human SGC-7901 cells at 10 uM measured after 72 hrs by SRB assay; type: functional, cell-based
# SGC-7901 [23] = assay: Induction of apoptosis in human SGC-7901 cells assessed as late apoptotic cells at 2.5 uM measure after 24 hrs by Annexin-PI staining based Flowcytometry method (reference value: 1.29%); type: functional
# MGC-803 [24] = assay: Inhibition of cell proliferation in human MGC-803 cells at 5 uM measured by SRB assay; type: functional, cell-based; conditions: time 72.0 hrs
# MGC-803 [25] = assay: Induction of apoptosis in human MGC-803 assessed by cleaved PARP levels incubated for 1 hr with Z-VAD-FMK followed by compound addition measured by western blot assay; type: functional, cell-based
# SGC-7901 [26] = assay: Inhibition of cell proliferation in human SGC-7901 cells at 2.5 uM measured after 72 hrs by SRB assay; type: functional, cell-based
# MGC-803 [27] = assay: Induction of apoptosis in human MGC-803 cells assessed as late apoptotic cells at 0.625 uM measure after 24 hrs by Annexin-PI staining based Flowcytometry method (reference value: 7.06%); type: functional
# MGC-803 [28] = assay: Induction of apoptosis in human MGC-803 cells assessed as necrotic cells at 1.25 uM measure after 24 hrs by Annexin-PI staining based Flowcytometry method (reference value: 3.13%); type: functional
# MKN-45 = assay: Antiproliferative activity against human MKN-45 cells assessed as inhibition of cell growth at measured after 72 hrs by SRB assay; type: functional
# SGC-7901 [29] = assay: Induction of apoptosis in human SGC-7901 cells assessed as necrotic cells at 2.5 uM measure after 24 hrs by Annexin-PI staining based Flowcytometry method (reference value: 1.16%); type: functional
# SGC-7901 [30] = assay: Inhibition of cell proliferation in human SGC-7901 cells at 5 uM measured after 72 hrs by SRB assay; type: functional, cell-based
# MGC-803 [31] = assay: Induction of apoptosis in human MGC-803 cells assessed as increase in accumulation of cleaved PARP measured after 24 hrs by western blot assay; type: functional, cell-based
# SGC-7901 [32] = assay: Induction of apoptosis in human SGC-7901 cells assessed as early apoptotic cells at 1.25 uM measure after 24 hrs by Annexin-PI staining based Flowcytometry method (reference value: 2.68%); type: functional
# SGC-7901 [33] = assay: Induction of apoptosis in human SGC-7901 cells assessed as early apoptotic cells at 10 uM measure after 24 hrs by Annexin-PI staining based Flowcytometry method (reference value: 2.68%); type: functional
# [34] = Selectivity index, ratio of GI50 for human MGC803 to GI50 for human GES-1 cells
# MGC-803 [35] = assay: Induction of apoptosis in human MGC-803 cells assessed as increase in ROS production at 10 uM measured after 24 hrs by DCHF-DA staining based Flowcytometry method; type: functional, cell-based
compound,measurement,setting,value
Cc1cc(Nc2ccc(C(=O)/C=C/c3cccc(Br)n3)cc2)n2nc(SCc3nc4ccccc4[nH]3)nc2n1,Activity,MGC-803 [1],inactive
same,Activity,SGC-7901 [2],1.55%
same,Activity,MGC-803 [3],15.4%
same,inhibition at 10 µM,MGC-803 [4],94.4%
same,viability at 10 µM,MGC-803 [5],45.3%
same,Activity,MGC-803 [6],4.7%
same,Activity,SGC-7901 [7],1.96%
same,Activity,MGC-803 [8],inactive
same,inhibition,MGC-803 [9],Active
same,Activity,SGC-7901 [10],62.8%
same,Activity,SGC-7901 [11],0.586%
same,viability at 1.25 µM,MGC-803 [12],88.6%
same,viability at 1.25 µM,SGC-7901 [13],94.8%
same,Activity,MGC-803 [14],9.48%
same,Activity,MGC-803 [15],10.7%
same,viability at 0.625 µM,MGC-803 [16],91.6%
same,GI50,HGC-27,640 nM
same,Activity,MGC-803 [17],6.25%
same,Activity,MGC-803 [18],Active
same,Activity,MGC-803 [19],Active
same,Activity,SGC-7901 [20],1.37%
same,Activity,MGC-803 [21],3.13%
same,Activity,GES1,Non-Toxic
same,inhibition,SGC-7901 [22],Active
same,Activity,SGC-7901 [23],5.53%
same,inhibition,MGC-803 [24],Active
same,Activity,MGC-803 [25],inactive
same,inhibition,SGC-7901 [26],inactive
same,Activity,MGC-803 [27],1.81%
same,Activity,MGC-803 [28],2.25%
same,GI50,MKN-45,640 nM
same,Activity,SGC-7901 [29],1.15%
same,inhibition,SGC-7901 [30],Active
same,Activity,MGC-803 [31],Active
same,Activity,SGC-7901 [32],1.59%
same,Activity,SGC-7901 [33],8.54%
same,RatioGI50,[34],6.9
same,Activity,MGC-803 [35],Active
